Experimental data as given in ChEMBL document CHEMBL1122633, “Interactions of antitumor drugs with natural DNA: 1H NMR study of binding mode and kinetics” (J Med Chem, 1984).

Test system: Nucleic Acid
Test: DNA binding dissociation constant as KD
Type: nucleic-acid assay

CS(=O)(=O)Nc1ccccc1Nc1c2ccccc2nc2ccccc12 and CS(=O)(=O)Nc1cccc(Nc2c3ccccc3nc3ccccc23)c1 are within 0.2 log units of each other in Log Kd: 5.72 for the first, 5.8 for the second.

CCN(CC)CCCC(C)Nc1c2ccc(Cl)cc2nc2ccc(OC)cc12 (stereo unspecified) and CCN(CC)CCCC(C)Nc1ccnc2cc(Cl)ccc12 (stereo unspecified) are the same in Log Kd: 4.25 for the first, 4.25 for the second.

Compared with CS(=O)(=O)Nc1ccc(Nc2c3ccccc3nc3ccccc23)cc1, COc1cc(NS(C)(=O)=O)ccc1Nc1c2ccccc2nc2ccccc12 is lower in Log Kd: 5.63 for the first, 5.14 for the second.

Going from CN(C)CCN1C(=O)c2cccc3cc([N+](=O)[O-])cc(c23)C1=O to Cc1cc2nc3ccccc3n(-c3cccc(N(C)C)c3)c-2c(C)c1=N, the Log Kd falls from 5.16 to 3.64.

First: Nc1c2ccccc2nc2ccccc12
Second: CC[n+]1c(-c2ccccc2)c2cc(N)ccc2c2ccccc21
The Log Kd of the first is higher: 5.7 for the first, 4.9 for the second.

First: Cc1c2ccncc2c(C)c2c1[nH]c1ccc(O)cc12
Second: Cc1c2ccncc2c(C)c2c1[nH]c1ccccc12
The Log Kd of the first is lower: 0.3 for the first, 5.18 for the second.

CC[n+]1c(-c2ccccc2)c2cc(N)ccc2c2ccc(N)cc21 and C[n+]1c(-c2ccccc2)c2cc(N)ccc2c2ccc(N)cc21 are the same in Log Kd: 5.7 for the first, 5.7 for the second.

First: C[n+]1ccc(Nc2ccc(NC(=O)c3ccc(Nc4cc[n+](C)c5ccc(N)cc45)cc3)cc2)cc1
Second: c1ccc2c(c1)ccc1[n+]2Cc2ccc3ccccc3[n+]2-1
The Log Kd of the first is higher: 6.9 for the first, 4.7 for the second.

First: Cc1c2cc[n+](C)cc2c(C)c2c1[nH]c1ccc(O)cc12
Second: c1ccc2c(c1)[nH]c1cnccc12
The Log Kd of the first is higher: 6.11 for the first, 5.34 for the second.

Compared with CCN(CC)CCOc1ccc2c(c1)C(=O)c1cc(OCCN(CC)CC)ccc1-2, Cn1cc(NC(=O)c2cc(NC(=O)c3cc(NC=O)cn3C)cn2C)cc1C(=O)NCCC(=N)N is higher in Log Kd: 5.64 for the first, 6.06 for the second.

Compound COc1cccc2c1C(=O)c1c(O)c3c(c(O)c1C2=O)C[C@@](O)(C(C)=O)C[C@@H]3O[C@H]1C[C@H](N)[C@H](O)[C@H](C)O1 has a Log Kd of 6.49.
